Source: US8541670B2, “Compositions and methods for inhibiting tumor cell growth” (priority 2007, dated 2013)
Where no end group is shown, it is not given here.

What was measured:
[1] = tested on: panel of 32 kinases (AKT2, AKT3, PKA, PKC, PI3K, SGK, PAK2, PAK3, SAPK2/p38, Abl, CaMKII, CDK1/cyclinB, CDK5/p35, CK1, CK2, CSK, GSK3, JNK1, MAPK1, p70S6K …); assay: In vitro kinase selectivity panel of 32 kinases; type: biochemical; details: at IC50 for AKT1 (0.1 μM)
Experimental: (§1) As a specific substrate, the phosphorylation level of GSK-3[…] at Ser-9 was also evaluated. […] The decrease was specific to the AKT phosphorylation site on GSK-3[…] at Ser-9, since a change in the phosphorylation level of GSK-3[…] at Tyr-216 or GSK-3[…] at Tyr-279 was not observed. Moreover, the in vivo reduction of the phosphorylation of AKT substrates was more obvious at the injection site, since a significant change in the phosphorylation of AKT substrates in the frontal cortex or cerebellum between the two hemispheres was not observed. […] To test the specificity/selectivity of ZaTa as the inhibitor of AKT1 versus the other major kinases, a series of in vitro kinase assays was performed at IC50 for AKT1 and at ten times higher concentrations. A panel of the following 32 kinases was first tested in vitro using the active form of each kinase and a specific substrate: AKT2, AKT3, PKA, PKC[…], PKC, PI3K[…], PI3K[…], PI3K, SGK, PAK2, PAK3, SAPK2/p38, Abl, CaMKII, CDK1/cyclinB, CDK5/p35, CK1, CK2, CSK, GSK3[…], GSK3[…], JNK1[…]1, MAPK1, p70S6K, PDGFR[…], PDGFR[…], PDK1, PKG1[…], TrkB, JAK2, JAK3, and Syk. […] However, at ten times higher concentration, ZaTa inhibited AKT2 (63%), PI3K[…] (72%), p70S6K (64%), SGK (73%), PAK3 (83%), JAK3 (79%), TrkB (84%), and Abl (42%). […]

Abl = Abl (Homo sapiens, UniProt P00519); assay: In vitro kinase assay Abl; type: biochemical; details: ten times higher concentration than 0.1 μM
Sequence of Abl (P00519 whole entry, species assumed): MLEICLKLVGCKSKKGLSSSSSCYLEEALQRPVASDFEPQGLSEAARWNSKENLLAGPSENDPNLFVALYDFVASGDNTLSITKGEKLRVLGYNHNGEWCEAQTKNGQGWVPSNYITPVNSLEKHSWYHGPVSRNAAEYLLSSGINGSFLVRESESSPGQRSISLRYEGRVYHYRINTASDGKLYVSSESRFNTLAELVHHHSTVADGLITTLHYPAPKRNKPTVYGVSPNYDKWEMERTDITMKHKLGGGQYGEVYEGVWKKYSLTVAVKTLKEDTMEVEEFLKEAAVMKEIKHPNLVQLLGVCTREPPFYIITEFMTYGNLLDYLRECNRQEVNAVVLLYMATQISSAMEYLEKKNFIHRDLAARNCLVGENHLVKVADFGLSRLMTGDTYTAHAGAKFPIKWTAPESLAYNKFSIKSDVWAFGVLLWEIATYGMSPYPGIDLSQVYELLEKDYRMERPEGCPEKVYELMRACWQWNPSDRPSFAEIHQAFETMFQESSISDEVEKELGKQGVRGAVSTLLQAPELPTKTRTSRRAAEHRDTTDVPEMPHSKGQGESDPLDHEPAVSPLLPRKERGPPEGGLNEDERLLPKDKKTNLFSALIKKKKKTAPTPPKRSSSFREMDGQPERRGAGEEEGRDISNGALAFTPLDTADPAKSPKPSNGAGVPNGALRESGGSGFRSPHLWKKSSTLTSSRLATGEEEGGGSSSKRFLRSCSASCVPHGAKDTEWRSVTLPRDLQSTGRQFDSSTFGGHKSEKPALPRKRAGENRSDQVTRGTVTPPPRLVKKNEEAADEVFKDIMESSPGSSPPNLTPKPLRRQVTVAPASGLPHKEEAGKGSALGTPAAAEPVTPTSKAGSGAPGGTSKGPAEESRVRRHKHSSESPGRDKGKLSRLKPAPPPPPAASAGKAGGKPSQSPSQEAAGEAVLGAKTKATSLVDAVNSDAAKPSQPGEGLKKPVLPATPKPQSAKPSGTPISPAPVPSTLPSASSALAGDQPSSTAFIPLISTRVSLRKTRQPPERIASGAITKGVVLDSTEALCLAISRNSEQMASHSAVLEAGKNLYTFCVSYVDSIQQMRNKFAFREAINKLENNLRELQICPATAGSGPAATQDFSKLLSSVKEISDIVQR
Experimental: as §1

PKA, PKC, CDKs = assay: In vivo phosphorylation of substrates of PKA, PKC, CDKs (consensus-site phospho-specific antibodies); parameters: species or system mouse; details: after in vivo injection
Experimental: To analyze in vivo selectivity, ZaTa was injected into one hemisphere and DMSO in the other hemisphere, as above, and a series of western blot analyses was preformed with phospho-specific antibodies which recognize a phosphorylated substrate or each one of the kinases that ZaTa inhibited at higher concentrations in vitro. […] Given the high functional and structural homology between p70S6K and AKT, the in vivo inhibitory effect of ZaTa on p70S6K was contemplated. Furthermore, the in vivo effect of ZaTa on the phosphorylation levels of substrates for PKA, PKC, CDKs using phospho-specific antibodies recognizing the phosphorylated consensus sites of these kinases was analyzed. In contrast to the consistent decrease in phosphorylation of AKT substrates, significant changes in the phosphorylation level of PKA, PKC and CDKs substrates was not observed after in vivo injection of ZaTa. […]

N2a cells = assay: Neurite count and live imaging of N2a neurons; type: cell-based
Experimental: Accordingly, the stability and phenotypic consequences of the AKT-PKAc complex was also analyzed in cultured neurons. N2a cells were treated with vehicle, ZaTa or control peptide for 24 hours. Media was removed after the 24-hour treatment and an equal number of cells from each treatment group was either cultured for another 24 hours without treatment, or lysed and subjected to immunoprecipitation with an antibody against AKT. Those cells cultured for another 24 hours were also harvested and subjected to immunoprecipitation. In parallel, the number of individual neurons with neurites was counted. […] Live images of N2a neurons were captured following treatment with vehicle or ZaTa (2 or 5 μM). […] ZaTa-mediated changes included a progressive loss of neurites, inhibition of new neurite formation, loss of cell motility, as well as formation of large cell colonies.

AKRVKGRTWTLCGTPEY [ZaTa]
inhibition of panel kinases [1]: no significant inhibition | inhibition of Abl (Abl): 42% | changes in phosphorylation level of PKA, PKC and CDKs substrates (PKA, PKC, CDKs): not observed | morphology of N2a neurons, live images (N2a cells; 2 or 5 μM): dramatic morphological changes | reversibility of neurite reduction (N2a cells; 24-hour incubation in the absence of ZaTa): reversible | number of neurons with neurites (N2a cells; 24-hour treatment): significant reduction
